PMC8318231, “Rate-of-Kill (RoK) assays to triage large compound sets for Chagas disease drug discovery: Application to GSK Chagas Box” (PLoS Neglected Tropical Diseases, 2021)

Tested on: T. cruzi intracellular amastigotes in H9c2 cells
Assay: Rate-of-Kill (RoK) high-content imaging assay, amastigotes per cell (AM/CELL) and curve descriptors
Format: cell-based, Trypanosoma cruzi
Set-up: key to ME_24h / ME_48h / ME_72h: % reduction in parasite burden (cidal response); t50pct_MCC50 / t50pct_Cmax: unit not given here
Conditions: for ME_24h: 24h; for ME_48h: 48h; for ME_72h: 72h; for t50%_Cmax / tlag_Cmax / t50pct_Cmax: at Cmax; for ME_24h (%): maximum effect at 24 h; for ME_24h (%) / ME_48h (%) / ME_72h (%): RoK assay; for ME_48h (%): maximum effect at 48 h; for ME_72h (%): maximum effect at 72 h; for ME 24h (maximum effect at 24 hours, intracellular amastigotes): maximum percentage of parasite burden reduction reached by any concentration
Outline: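 H9c2 cardiomyocytes infected with T. cruzi trypomastigotes (MOI 8, 18 h), then compounds tested at 5 μM single shot or 11-point 1/3 dilution from 50 μM. DRAQ5-stained nuclei imaged over a time course. Amastigotes per cell normalised to infected cells at 4 h (0%) and non-infected cells (100%).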

| Compound | ME_24h (figure 5) | ME_48h (figure 5) | ME_72h (figure 5) | MCC50 (RoK curve descriptor) [µM] | MCCE (RoK curve descriptor) [µM] | tlag_Cmax [h] | t50pct_Cmax (figure 5) | tlag_Cmax (figure 5) | t50%_MCC50 (at MCC50) [h] | tlag_MCC50 (at MCC50) [h] | t50pct_MCC50 (at MCC50, figure 5) | tlag_MCC50 (at MCC50, figure 5) | MCCE (figure 5) | MCC50 (figure 5, in µM) | ME_24h (%) | ME_48h (%) | ME_72h (%) | ME 24h (maximum effect at 24 hours, intracellular amastigotes) [%] | AM/CELL NORM (Time 4, sheet figure 4 A) | AM/CELL NORM (Time 24, sheet figure 4 A) | other results |
| --- | --- | --- | --- | --- | --- | --- | --- | --- | --- | --- | --- | --- | --- | --- | --- | --- | --- | --- | --- | --- | --- |
| O=C(NCC1CCCCC1)c1cc(=O)c2ccccc2o1 [TCMDC-123621] | 36.8077 | 33.2383 | 64.4668 | 5.6 | 0.6 | 4.0 | 72 | 4 | 72.0 | 4.0 | 72 | 4 | 0.6173 | 5.556 | 36.8 | 33.2 | 64.5 | 36.8077 | – | – | AM/CELL NORM (Time 4, figure 4 A): -5.701; AM/CELL NORM (Time 24, figure 4 A): 30.3317; AM/CELL NORM (Time 48, figure 4 A): 33.2183; AM/CELL NORM (Time 72, figure 4 A): 64.4668; t50%_Cmax: 72.0 h |
| Cl.O=c1cc(NCCCNC2CCOc3c(I)cc(Cl)cc32)[nH]c2ccccc12 (stereo not drawn) [TCMDC-139489] | 37.6706 | 64.7005 | 58.8587 | 5.6 | 0.2 | 4.0 | 48 | 4 | 72.0 | 4.0 | 72 | 4 | 0.2058 | 5.556 | 37.7 | 64.7 | 58.9 | 37.6706 | – | – | ME (maximum effect) in RoK assay (in words): high ME at 24 hours and 72 hours; tlag (in words): short tlag times; AM/CELL NORM (Time 4, figure 4 A): 5.191; AM/CELL NORM (Time 24, figure 4 A): 37.6706; AM/CELL NORM (Time 48, figure 4 A): 64.7005; AM/CELL NORM (Time 72, figure 4 A): 58.8587; t50%_Cmax: 48.0 h |
| Cc1cccc(N2CCCN(Cc3c[nH]c4ccccc34)CC2)n1 [TCMDC-143185] | 34.1143 | 65.81 | 87.1854 | 1.9 | 0.6 | 4.0 | 48 | 4 | 48.0 | 4.0 | 48 | 4 | 0.6173 | 1.852 | 34.1 | 65.8 | 87.2 | 84.3328 | – | – | AM/CELL NORM (Time 4, figure 4 A): -11.6177; AM/CELL NORM (Time 24, figure 4 A): 35.9083; AM/CELL NORM (Time 48, figure 4 A): 66.1558; AM/CELL NORM (Time 72, figure 4 A): 81.0849; t50%_Cmax: 48.0 h |
| O=C(NCCc1cccnc1)c1ccc(-c2ccccc2F)o1 [TCMDC-143190] | -188.225 | -99.3488 | 47.7023 | 5.6 | 0.2 | 24.0 | 72 | 24 | 72.0 | 24.0 | 72 | 48 | 0.2058 | 27.7778 | -188.2 | -99.4 | 47.7 | -116.413 | 10.7478 | -116.413 | AM/CELL NORM (Time 48, sheet figure 4 A): -106.707; AM/CELL NORM (Time 72, sheet figure 4 A): 59.1013; t50%_Cmax: 72.0 h |
| COc1ccc(NS(=O)(=O)c2cc(-c3cc(C)[nH]n3)ccc2C)cc1OC [TCMDC-143194] | -114.917 | -675.674 | -796.23 | 16.7 | 1.2 | 41.3 | 72 | 41.3333 | 72.0 | 24.0 | 72 | 56 | 1.237 | 38.8889 | -114.9 | -675.7 | -796.2 | 24.095 | – | – | AM/CELL NORM (Time 4, figure 4 A): 17.4808; AM/CELL NORM (Time 24, figure 4 A): 13.7763; AM/CELL NORM (Time 48, figure 4 A): 30.9676; AM/CELL NORM (Time 72, figure 4 A): 53.1796 |
| O=S(=O)(c1cccc(CSc2nnc(-c3ccc4c(c3)OCO4)o2)c1)N1CCOCC1 [TCMDC-143197] | -16.5303 | 13.4442 | 33.635 | – | 0.07 | 4.0 | 72 | 4 | – | – | 72 | 72 | 0.06859 | – | -16.5 | 13.4 | 33.6 | -16.5303 | -18.4264 | -16.5303 | AM/CELL NORM (Time 48, sheet figure 4 A): -6.567; AM/CELL NORM (Time 72, sheet figure 4 A): 29.0194; MCC50 (figure 5): 50 µM |
| CC1CN(S(=O)(=O)c2ccc(NC(=O)c3cc(C4CC4)nc4c3cnn4C(C)C)cc2)CC(C)O1 (stereo not drawn) [TCMDC-143200] | 2.192 | 1.8894 | 56.9286 | 1.9 | 1.9 | 4.0 | 72 | 4 | 72.0 | 24.0 | 72 | 24 | 1.852 | 1.852 | 2.2 | 1.9 | 56.9 | 2.192 | -14.9286 | 2.192 | AM/CELL NORM (Time 48, sheet figure 4 A): -23.2452; AM/CELL NORM (Time 72, sheet figure 4 A): 15.376 |
| O=C(NCCc1cccnc1)c1csc(-c2ccccc2)n1 [TCMDC-143203] | -222.428 | -89.2348 | 54.0545 | 5.6 | 0.6 | 24.0 | 72 | 24 | 72.0 | 24.0 | 72 | 48 | 0.6173 | 27.7778 | -222.4 | -89.2 | 54.1 | -177.566 | 2.597 | -179.486 | AM/CELL NORM (Time 48, sheet figure 4 A): -77.3027; AM/CELL NORM (Time 72, sheet figure 4 A): 80.8727; t50%_Cmax: 72.0 h |
| CC(=O)Nc1nc(-c2cc(C)ccc2C)c(C)s1 [TCMDC-143207] | 9.377 | 15.7339 | 56.2605 | 5.6 | 0.2 | 4.0 | 72 | 4 | 72.0 | 4.0 | 72 | 4 | 0.2058 | 5.556 | 9.4 | 15.7 | 56.3 | 9.377 | -2.089 | 9.377 | AM/CELL NORM (Time 48, sheet figure 4 A): 6.875; AM/CELL NORM (Time 72, sheet figure 4 A): 36.4934 |
| Cn1nccc1-c1cc(OC(CN)c2ccccc2)cnc1-c1ccco1.O=C(O)C(F)(F)F.O=C(O)C(F)(F)F (stereo not drawn) [TCMDC-143221] | -243.084 | -97.9255 | 30.5438 | – | 1.9 | 24.0 | 72 | 24 | – | – | 72 | 72 | 1.852 | – | -243.1 | -97.9 | 30.5 | -243.084 | 21.0268 | -310.615 | AM/CELL NORM (Time 48, sheet figure 4 A): -207.349; AM/CELL NORM (Time 72, sheet figure 4 A): 0.471; MCC50 (figure 5): 50 µM |
| CS(=O)(=O)c1ccc(CC(=O)Nc2nc(-c3ccc(Cl)s3)cs2)cc1 [TCMDC-143224] | -50.7576 | -167.826 | 53.6478 | 16.7 | 1.9 | 48.0 | 72 | 48 | 72.0 | 48.0 | 72 | 48 | 1.852 | 16.6667 | -50.8 | -167.8 | 53.7 | -50.7576 | -3.952 | -61.4068 | AM/CELL NORM (Time 48, sheet figure 4 A): -205.24; AM/CELL NORM (Time 72, sheet figure 4 A): -9.589 |
